Data reported in ChEMBL document CHEMBL6121051, “Dendritic Antifungal Peptides as Potent Agents against Drug-Resistant Candida albicans and Biofilm” (J Med Chem, 2025).
≈ marks a conversion by molar mass, not a printed value. Calls of active or inactive are those of the source. The calls are words filed in the database; no cut-off is given here. Positions of bridges follow the written chain, without caps; N, C: chain ends. Residues, ends and D or L forms follow the SMILES beside them. Chains are numbered I, II in the order given. *: point of attachment. Butyryl = CCCC(=O)*

Columns and labels:
Candida albicans [1] = experiment: Antifungal activity against Candida albicans assessed as inhibition of fungal growth preincubated with 4 mg/ml trypsin for 8 hrs followed by incubation with fungus for 48 hrs; assay type: functional, organism-based
Candida albicans [2] = experiment: Antifungal activity against Candida albicans assessed as inhibition of fungal growth preincubated with 8 mg/ml chymotrypsin for 8 hrs followed by incubation with fungus for 48 hrs; assay type: functional, organism-based
Cell wall [3] = experiment: Induction of cell wall permeability in Candida albicans 2.2086 assessed as increase in cell wall damage by NPN probe based fluorescence analysis; assay type: subcellular; settings: dose 4-128 µM
Candida albicans [4] = experiment: Antifungal activity against fluconazole-resistant Candida albicans 56214 infected in ICR mouse assessed as reduction in TNF-alpha expression in skin wound at 5 mg/ml administered topically bid for 3 days starting at 12 hrs post-infection and measured after 7 days by immunofluorescence analysis; assay type: functional, organism-based; settings: time 7.0 day
HEK-293T [5] = experiment: Cytotoxicity against human HEK293T cells assessed as cell viability at 8 to 128 ug/ml incubated for 4 hrs by MTT assay; assay type: toxicity, cell-based; settings: dose 8-128 µg/ml
Candida albicans [6] = experiment: Antifungal activity against Candida albicans 2.3989 assessed as inhibition of fungal growth incubated for 48 hrs; assay type: functional
Candida albicans [7] = experiment: Fungicidal activity against fluconazole-resistant Candida albicans 56214 assessed as killing effect by measuring orange fluorescence at 8 uM incubated for 1 hr by SYTO9/PI staining based fluorescence microscopy; assay type: functional
Candida albicans [8] = experiment: Antifungal activity against Candida albicans SP 3902 assessed as inhibition of fungal growth incubated for 48 hrs; assay type: functional
Cell membrane [9] = experiment: Disruption of cytoplasmic membrane in Candida albicans 2.2086 assessed as increase in membrane depolarization at 1XMIC by diSC3-5 dye based potentiometric analysis
Candida albicans [10] = experiment: Antifungal activity against fluconazole-resistant Candida albicans 56214 infected in ICR mouse assessed as wound healing with appearance of new skin tissue at 5 mg/ml administered topically bid for 3 days starting at 12 hrs post-infection and measured for 6 days; assay type: functional, organism-based; settings: time 6.0 day
Cell membrane [11] = experiment: Disruption of cytoplasmic membrane in Candida albicans 2.2086 assessed as increase in membrane depolarization at 1XMIC to 4XMIC measured after 500 secs by diSC3-5 dye based potentiometric analysis; assay type: subcellular; settings: time 500.0 sec
Candida albicans [12] = experiment: Antifungal activity against Candida albicans assessed as inhibition of fungal growth preincubated with 8 mg/ml proteinase K for 8 hrs followed by incubation with fungus for 48 hrs; assay type: functional, organism-based
Candida albicans [13] = experiment: Antifungal activity against Candida albicans assessed as inhibition of fungal growth incubated for 48 hrs in presence of NaCl; assay type: functional, organism-based
Candida albicans [14] = experiment: Induction of morphological changes in Candida albicans 2.2086 at 8 to 16 uM incubated for 2 hrs by fluorescence cell imaging system; assay type: functional, organism-based; settings: dose 8-16 µM
Candida albicans [15] = experiment: Induction of ROS production in Candida albicans 2.2086 assessed as increase in intracellular ROS accumulation at <4 uM incubated for 1 hr by DCFH-DA staining based fluorescence analysis; assay type: functional, organism-based
Candida albicans [16] = experiment: Antifungal activity against fluconazole-resistant Candida albicans 56214 infected in ICR mouse assessed as reduction in IL-6 expression in skin wound at 5 mg/ml administered topically bid for 3 days starting at 12 hrs post-infection and measured after 7 days by immunofluorescence analysis; assay type: functional, organism-based; settings: time 7.0 day
Candida albicans [17] = experiment: Antifungal activity against Candida albicans assessed as inhibition of fungal growth incubated for 48 hrs in presence of ZnCl2; assay type: functional, organism-based
Cell wall [18] = experiment: Induction of cell wall permeability in Candida albicans 2.2086 at 16 uM by NPN probe based fluorescence analysis; assay type: subcellular
[19] = Cytotoxicity against human HEK293T cells assessed as cell survival rate at 128 ug/ml incubated for 4 hrs by MTT assay; assay type: toxicity, cell-based, HEK-293T; settings: dose 128 µg/ml, read-out: Activity
[20] = Toxicity against human RBC assessed as hemolysis rate at 128 ug/ml incubated for 1 hr; assay type: cell-based, Erythrocyte; settings: red blood cells (RBC), dose 128 µg/ml, read-out: Activity
Candida albicans [21] = experiment: (§1) Antifungal activity against fluconazole-resistant Candida albicans 56214 infected in ICR mouse assessed as reduction in severity of skin infection at 5 mg/ml administered topically bid for 3 days starting at 12 hrs post-infection and measured after 7 days by PAS staining based analysis; assay type: functional, organism-based; settings: time 7.0 day
Candida albicans [22] = experiment: Antifungal activity against Candida albicans 17546 assessed as inhibition of fungal growth incubated for 48 hrs; assay type: functional
[23] = Drug localization in Candida albicans cell membrane using FITC-labeled compound at 8 uM incubated for 3 hrs by DAPI staining based fluorescence microscopy; assay type: ADME, cell membranes
HEK-293T [24] = experiment: Cytotoxicity against human HEK293T cells assessed as damage to cells at 4XMIC incubated for 8 hrs by Calcein-AM/PI staining based fluorescence microscopy; assay type: toxicity, cell-based
Candida albicans [25] = experiment: Antifungal activity against fluconazole-resistant Candida albicans 56214 assessed as inhibition of fungal growth incubated for 48 hrs; assay type: functional
Candida albicans [26] = experiment: Antifungal activity against fluconazole-resistant Candida albicans 56214 infected in ICR mouse assessed as elimination of fungal hyphae on the infected skin at 5 mg/ml administered topically bid for 3 days starting at 12 hrs post-infection and measured after 7 days by PAS staining; assay type: functional, organism-based; settings: time 7.0 day
[27] = Drug penetration into mature fluconazole-resistant Candida albicans 56214 biofilms assessed as increase in green fluorescence intensity at 8 to 16 uM using FITC-labeled compound incubated in dark for 3 hrs by DAPI staining based laser confocal microscopy; assay type: ADME; settings: dose 8-16 µM
Cell membrane [28] = experiment: Induction of cell membrane damage in Candida albicans assessed as scattered distribution of cell wall and cell membrane structures, loss of integrity and leakage of contents at 16 uM incubated for 1 hr by scanning electron microscopy; assay type: subcellular
Candida albicans [29] = experiment: Antifungal activity against Candida albicans assessed as inhibition of fungal growth incubated for 48 hrs in presence of KCl; assay type: functional, organism-based
[30] = Drug localization in Candida albicans cell membrane using FITC-labeled compound by FITC/PI staining based confocal microscopy; assay type: ADME, cell membranes
Candida albicans [31] = experiment: Antifungal activity against Candida albicans assessed as inhibition of fungal growth incubated for 48 hrs in presence of MgCl2; assay type: functional, organism-based
Candida albicans [32] = experiment: Antifungal activity against Candida albicans assessed as inhibition of fungal growth compound preincubated with upto 8 mg/ml chymotrypsin for 4 hrs followed by incubation with fungus for 48 hrs; assay type: functional, organism-based
Candida albicans [33] = experiment: Antifungal activity against Candida albicans assessed as inhibition of fungal growth compound preincubated with upto 4 mg/ml trypsin for 4 hrs followed by incubation with fungus for 48 hrs; assay type: functional, organism-based
Candida albicans [34] = experiment: Antifungal activity against Candida albicans assessed as inhibition of fungal growth compound preincubated with upto 8 mg/ml proteinase K for 4 hrs followed by incubation with fungus for 48 hrs; assay type: functional, organism-based
RAW264.7 = experiment: Cytotoxicity against mouse RAW264.7 cells assessed as damage to cells at 4XMIC incubated for 8 hrs by Calcein-AM/PI staining based fluorescence microscopy; assay type: toxicity, cell-based; settings: raw264.7, 8 h
Candida albicans [35] = experiment: Antifungal activity against fluconazole-resistant Candida albicans 56214 infected in ICR mouse assessed as log reduction in fungal burden on the infected skin at 5 mg/ml administered topically bid for 3 days starting at 12 hrs post-infection and measured after 7 days; assay type: functional; settings: time 7 day
Candida albicans [36] = experiment: Fungicidal activity against fluconazole-resistant Candida albicans 56214 assessed as killing effect within biofilms by measuring increase in red fluorescence intensity at 8 uM incubated for 3 hrs by SYTO9/PI staining based fluorescence microscopy; assay type: functional
Candida albicans [37] = experiment: Antifungal activity against Candida albicans SP 3931 assessed as inhibition of fungal growth incubated for 48 hrs; assay type: functional
Cell membrane [38] = experiment: Induction of cell membrane damage in Candida albicans assessed as scattered distribution of cell wall and cell membrane structures, loss of integrity and leakage of contents at 16 uM incubated for 1 hr by transmission electron microscopy; assay type: subcellular
Candida albicans [39] = experiment: Antifungal activity against Candida albicans 14936 assessed as inhibition of fungal growth incubated for 48 hrs; assay type: functional
Candida albicans [40] = experiment: Antifungal activity against Candida albicans cgmcc 2.2086 assessed as inhibition of fungal growth incubated for 48 hrs; assay type: functional
Candida albicans [41] = experiment: Antifungal activity against Candida albicans 58288 assessed as inhibition of fungal growth incubated for 48 hrs; assay type: functional
Candida albicans [42] = experiment: Antifungal activity against Candida albicans SP 3903 assessed as inhibition of fungal growth incubated for 48 hrs; assay type: functional
Candida albicans [43] = experiment: Inhibition of biofilm formation of fluconazole-resistant Candida albicans 56214 at 8 uM incubated for 48 hrs by crystal violet staining based analysis; assay type: functional
Candida albicans [44] = experiment: Antifungal activity against Candida albicans assessed as inhibition of fungal growth incubated for 48 hrs in presence of CaCl2; assay type: functional, organism-based
Candida albicans [45] = experiment: Fungicidal killing kinetic activity against fluconazole-resistant Candida albicans 56214 assessed as killing of fungi at 1XMIC to 4XMIC incubated with fungus in PBS solution for 3 mins followed by culturing on YPD plate for 48 hrs; assay type: functional, organism-based; settings: time 2883.0 min
Candida albicans [46] = experiment: Antifungal activity against Candida albicans assessed as inhibition of fungal growth incubated for 48 hrs in presence of FeCl3; assay type: functional, organism-based
Candida albicans [47] = experiment: Antifungal activity against Candida albicans assessed as inhibition of fungal growth incubated for 48 hrs in presence of NH4Cl; assay type: functional, organism-based
Candida albicans [48] = experiment: as §1, with “in oxidative stress by measuring decrease in ROS accumulation in” for “in severity of”, “skin wounds” for “skin infection”, “by fluorescence” for “by PAS”; assay type: functional, organism-based; settings: time 7.0 day

For `CCCC(=O)NCC(=O)NCC(=O)NCC(=O)N[C@@H](CCCCNC(=O)[C@@H]1CCCN1C(=O)[C@H](CCCNC(=N)N)NC(=O)[C@@H]1CCCN1C(=O)[C@H](CCCNC(=N)N)NC(=O)[C@@H]1CCCN1C(=O)[C@@H](N)CCCNC(=N)N)C(=O)N[C@@H](CCCCNC(=O)[C@@H]1CCCN1C(=O)[C@H](CCCNC(=N)N)NC(=O)[C@@H]1CCCN1C(=O)[C@H](CCCNC(=N)N)NC(=O)[C@@H]1CCCN1C(=O)[C@@H](N)CCCNC(=N)N)C(=O)N[C@@H](CCCNC(=N)N)C(=O)N1CCC[C@H]1C(=O)N[C@@H](CCCNC(=N)N)C(=O)N1CCC[C@H]1C(=O)N[C@@H](CCCNC(=N)N)C(=O)N1CCC[C@H]1C(N)=O` (I: Butyryl-GGGKKRPRPRP-NH2 / II: H-RPRPRP / III: H-RPRPRP; amide I:4-II:C, I:5-III:C), the Activity (Candida albicans [1]) was “Active”, the Activity (Candida albicans [2]) was “Active” and the Activity (Cell wall [3]) was “Dose-dependent-effect”. The Activity (Candida albicans [4]) was “Active”, the Activity (HEK-293T [5]) was “Non-toxic” and the MIC (Candida albicans [6]) was 4 µM (≈ 11.2 µg/mL). For the same compound, the Activity (Candida albicans [7]) was 90%, the MIC (Candida albicans [8]) was 4 µM (≈ 11.2 µg/mL) and the Activity (Cell membrane [9]) was “Active; Effective Depolarization Observed”. The Activity (Candida albicans [10]) was “Active”, the Activity (Cell membrane [11]) was “Active” and the Activity (Candida albicans [12]) was “Active”. For the same compound, the Activity (Candida albicans [13]) was “Active”, the Activity (Candida albicans [14]) was “Active” and the Activity (Candida albicans [15]) was “Active”. For the same compound, the Activity (Candida albicans [16]) was “Active”, the Activity (Candida albicans [17]) was “Active” and the Activity (Cell wall [18]) was 100%. For the same compound, the viability at 4 h, 128 ug/ml [19] was 95%, the hemolysis at 1 h, 128 ug/ml [20] was less than 2% and the Activity (Candida albicans [21]) was “Active”. For the same compound, the MIC (Candida albicans [22]) was 16 µM (≈ 44.7 µg/mL), the Drug uptake [23] was greater than 90% and the Activity (HEK-293T [24]) was “Non-toxic”. For the same compound, the MIC (Candida albicans [25]) was 4 µM (≈ 11.2 µg/mL), the Activity (Candida albicans [26]) was “Active” and the Drug uptake [27] was “Active”. The Activity (Cell membrane [28]) was “Active”, the Activity (Candida albicans [29]) was “Active” and the Drug uptake [30] was “Active”. For the same compound, the Activity (Candida albicans [31]) was “Active”, the Activity (Candida albicans [32]) was “Active” and the Activity (Candida albicans [33]) was “Active”. For the same compound, the Activity (Candida albicans [34]) was “Active”, the Activity (RAW264.7) was “Non-toxic” and the “log(activity)” value (Candida albicans [35]) was roughly 1.7. The Activity (Candida albicans [36]) was greater than 90%, the MIC (Candida albicans [37]) was 4 µM (≈ 11.2 µg/mL) and the Activity (Cell membrane [38]) was “Active”. It also gave an MIC (Candida albicans [39]) of 4 µM (≈ 11.2 µg/mL), an MIC (Candida albicans [40]) of 4 µM (≈ 11.2 µg/mL) and an MIC (Candida albicans [41]) of 8 µM (≈ 22.4 µg/mL). The MIC (Candida albicans [42]) was 4 µM (≈ 11.2 µg/mL), the inhibition at 8 µM (Candida albicans [43]) was 100% and the Activity (Candida albicans [44]) was “Active”. The Activity (Candida albicans [45]) was “Active”, the Activity (Candida albicans [46]) was “Active” and the Activity (Candida albicans [47]) was “Active”. For the same compound, the Activity (Candida albicans [48]) was “Active”.
